What was measured:
[1] = experimental animals; cited from earlier work
[2] = system: LNCaP/prostate stroma coculture tumors; experiment: Efficacy against LNCaP/prostate stroma coculture tumors in SCID mice (tumor volume); type: in vivo, CB17.SCID mice; settings: naked antibody 30 mg/kg IP SD on Day 0; to Day 62; FIG. 4
Description: In order to determine the efficacy of anti-RG-1 and ED-B-cytotoxin conjugates (using the cytotoxin/linker of formula (m)), LNCaP xenografts were performed as follows: 120 CB17.SCID mice were each subcutaneously injected with 2 million LNCaP cells and 1 million prostate stroma cells (cat# CC-2508, Cambrex Bio Science Walkersville, Inc, Walkersville, Md.) resuspended in 0.2 ml of PBS/Matrigel (1:1) (BD Bioscience) at the flank region. This LNCaP/Stroma model expresses high levels of PMSA on the cell surface, high levels of RG-1 in the stroma, and low levels of ED-B in the stroma. CD70 is used as an isotype control as the xenographs are negative for CD70. Mice were weighed and measured for tumors three dimensionally using an electronic caliper once weekly after implantation. Tumor volumes were calculated as height×width×length/2. Mice with tumors averaging 50 mm^3 were randomized into 16 treatment groups of seven mice on Day-1 and mice were treated intraperitoneally with vehicle, antibody, or antibody-cytotoxin conjugate according to the dosing regimen described in Table 1 on Day 0, Studies were terminated at Day 62.

In the case of `COc1c(O)c2c(c3cc(C(=O)N4CCc5c4c(O)c(OC)c4[nH]c(C(=O)N6CC7CC78C6=CC(=O)c6[nH]cc(C)c68)cc54)[nH]c13)CCN2C(N)=O` (centres unmarked) [CC-1065], the delayed death [1] is listed as “causes delayed death in experimental animals”.

B1: anti-ED-B: human monoclonal antibody 1C5 binding fibronectin ED-B, VH SEQ ID NO: 7, VL SEQ ID NO: 8; naked antibody (antibody, listed as Homo sapiens, V domains shown)
VH: EVQLVESGGGLVQPGGSLRLSCAASGFTFSSYSMNWVRQAPGKGLEWVSYISSSSRAIYYADSVKGRFTISRDNAKNSLYLQMNSLRDEDTAVYYCARARYFDWLWYYWGQGTLVTVSS
VL: EIVLTQSPGTLSLSPGERATLSCRASQSVSSSYLAWYQQEPGQAPRLLIYGASSRATGIPDRFSGSGSGTDFTLTISRLEPEDFAVYYCQQRSNWPPTFGQGTKVEIK
For B1, the “effect on tumor growth (median tumor volume)” value [2] was “no inhibitory effect on tumor growth”.

Reference: patent publication US20090162372A1, “FIBRONECTIN ED-B ANTIBODIES, CONJUGATES THEREOF, AND METHODS OF USE” (Medarex, Inc., priority 2007, published 2009)
